Key:
C3H/H male mice = assay: acetic acid-writhing method, intravenous, time course in comparison with phenylbutazone; format: in vivo, mouse; conditions: for Writhing frequency / writhing inhibition: Group B, i.v. 1 mg/mouse
Source text: The analgesic effects of the LPSs of the present invention have been confirmed by an experiment using animals according to the acetic acid-writhing method described on page 415 of "Inflammation and anti-inflammatory therapy" issued in 1982 by Ishiyaku Shuppan Co. in Japan, one of the established methods for the determination of the effects of non-narcotic analgesics. The experiment included comparison with the prior art phenylbutazone which is often used to eliminate inflammatory pain.
2) The following preparations were given to six-membered groups of 8 week old C3H/H male mice (body weight: 20-25 g).
Group A: an intravenous solution prepared by dissolving 1 μg by weight/mouse of LPS (wheat LPS prepared in Reference Example 1) in 0.2 ml of physiological saline.
Group B: an intravenous solution prepared by dissolving 1 mg/mouse of the prior art analgesic phenylbutazone in 0.2 ml of 1% aqueous CMC solution.
Group C: 0.2 ml of physiological saline.
0.5 ml of 1% acetic acid was administered intraperitoneally 0.5, 1.5, 3, 8 or 18 hours after the administration of the preparations, and the writhing frequency of the respective mice was counted. The results are shown in Table 9 as an average of six mice in the respective groups. In the table, the writhing inhibition (%) was calculated as follows: [formula]
In the above equation, the writhing frequency in the group C is that obtained in the case where acetic acid was given 30 minutes after the administration of physiological saline, and the counting was made for 30 minutes. The data of the group A was 39, whereas that of the group B was 35.

[1] = tested on: macrophage peritoneal cells of mice; assay: ability of LPS to activate in vitro TNF productivity of macrophage (TNF activity by cytotoxicity to L929 cells); format: cell-based, mouse
Method: In order to determine the ability of LPS to activate the in vitro TNF productivity of macrophage, a recombinant mouse IFN-γ is added to peritoneal macrophage cells of mouse as the primer followed by addition of the LPS as the trigger thereto, and then the TNF activity is determined.
The TNF activity is determined, as follows, on the basis of the cytotoxicity to L929 cells (Proci. Natl. Acad. Sci. U.S.A., 72, pp. 3666-3670, […]). L-929 cells are cultured in Eagles' Minimum Essential Medium (hereunder referred to only as MEM) with 5% fetal calf serum (hereunder referred to only as FCS) added thereto until 100 μl of the medium contains 8×10^4 cells, and then the cells are grown in a flat-bottomed plate having 96 wells.
The growth conditions are 37° C. in the presence of 5% CO2, and under a humidity of 100% for 2 hours, and the procedures may be the same as for the conventional cell culture. Then actinomycin D is added to the medium to a final concentration of 1 μg/ml, and the volume of the culture solution is adjusted to 150 μl. Immediately thereafter 50 μl of the sample diluted appropriately with MEM medium is added to the culture solution. Here, ED50 may be determined by adjusting the dilution appropriately. The L-929 cells having a final volume of 200 μl are cultured for an additional 18 hours under the same conditions as described above.
In order to determine the cell necrosis activity, first the whole medium is removed followed by addition of a 1% methyl alcoholic solution containing 0.1% crystal violet for fixation staining. Crystal violet stains all the eukaryotic cells, but the dead cells are removed off from the bottom of the flask only by washing after the staining; so the cell necrosis activity may be determined directly. The staining degree is measured on the basis of adsorption at OD590 nm, and is compared with that of a control to determine the cell necrosis activity. This activity is defined as follows.
The dilution of the sample which allows 50% of the L-929 cells to survive (N) is determined. Rabbit TNS is used as the control, and its activity n (units/ml) is determined using 2.4×10^6 units/mg/ml of TNF-α. The dilution which provides ED50 of rabbit TNS is determined.
The activity of the sample (units/ml) is calculated by the equation N/C×n.
Two hundred μl (2×10^5 cells)/well of macrophage peritoneal cells of mice (each group comprised three mice of 9 weeks old and having an average weight of 29 g) were placed in a flat-bottomed plate having 96 wells, and 10 μl of recombinant IFN-γ (100 units/ml) as a primer was placed in the respective wells. Separately, extracts prepared by extraction of various LPS sources with hot water at 65° C. for 5 hrs. were diluted to various degrees, and then were administered as triggers to the cells three hours after the administration of the primer in a proportion of 10 μl/well. After two hour culture, the culture solutions were subjected to centrifugation at 3,000 G for 20 min. A pipette was used to collect 130 μl of the supernatant from the respective wells, and the TNF activity was determined on the basis of the toxicity to L929 cells. The limulus test-positive LPS content was determined using Toxicolor System® commercially available from Sei-Kagaku Kogyo Co. in Japan.
The values were plotted to prepare a graph wherein the quantity of the TNF produced (units/ml of culture solution) was plotted along the axis of ordinate, whereas the corresponding limulus test-positive LPS content (ng/ml of culture solution) was plotted along the axis of abscissa (on a logarithmic scale), and a sigmoid curve was prepared on the basis of the plotted points. The macrophage activation ability was estimated to be 0% in the case where it corresponded to the quantity of TNF produced by macrophage with no trigger added thereto, and 100% was assigned to the macrophage activation ability which provided the maximal constant of TNF. […]

[2] = LPS 2 ng/ml of culture solution
[3] = LPS 24 ng/ml of culture solution
[4] = LPS 240 ng/ml of culture solution
[5] = LPS 2400 ng/ml of culture solution

## CCCCC1C(=O)N(c2ccccc2)N(c2ccccc2)C1=O [phenylbutazone]
C3H/H male mice; 3 hours after administration
  significance of analgesic effects (double-sided t test): no significant analgesic effects
C3H/H male mice; time lapsed 0.5 h
  Writhing frequency: 18
  writhing inhibition: 49%
C3H/H male mice; time lapsed 1.5 h
  Writhing frequency: 7
  writhing inhibition: 80%
C3H/H male mice; time lapsed 3 h
  Writhing frequency: 25
  writhing inhibition: 29%

## Lipid A
[1]; [2]
  TNF produced: 4.7 units/ml of culture solution
  macrophage activation ability: 37%
[1]; [3]
  TNF produced: 9.4 units/ml of culture solution
  macrophage activation ability: 80%
[1]; [4]
  TNF produced: 11.1 units/ml of culture solution
  macrophage activation ability: 96%
[1]; [5]
  TNF produced: 11.5 units/ml of culture solution
  macrophage activation ability: 100%

Source: US5281583A, “LPS-containing analgesics and veterinary analgesics” (priority 1990, dated 1994)
